Measurements published in patent EP4603105A1, “PHARMACEUTICAL COMPOSITION CONTAINING CYCLIC COMPOUND HAVING SELECTIVE KRAS INHIBITORY EFFECT AGAINST HRAS AND NRAS” (CHUGAI SEIYAKU KABUSHIKI KAISHA, priority 2022, dated 2024).

What was measured:
[1] = biological target: GDP-bound NRAS wild-type protein (Homo sapiens, UniProt P01111); test: Binding to NRAS by surface plasmon resonance (SPR), KD and KD ratio to KRAS; settings: ratio of KD for GDP-bound NRAS wild-type protein to KD for KRAS
Method in brief: (§1)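 Biotinylated GDP-bound RAS was captured at about 100–300 RU. Running buffer: HBS pH 7.4, 10 mM MgCl2, 10 µM GDP, 1 mM DTT, 0.01% Tween 20, 4% DMSO.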

[2] = biological target: GDP-bound KRAS wild-type protein (Homo sapiens, UniProt P01116); test: Binding to KRAS by surface plasmon resonance (SPR), dissociation constant KD; settings: 1:1 binding model
Sequence of GDP-bound KRAS wild-type protein (P01116 1-188 isoform P01116-2): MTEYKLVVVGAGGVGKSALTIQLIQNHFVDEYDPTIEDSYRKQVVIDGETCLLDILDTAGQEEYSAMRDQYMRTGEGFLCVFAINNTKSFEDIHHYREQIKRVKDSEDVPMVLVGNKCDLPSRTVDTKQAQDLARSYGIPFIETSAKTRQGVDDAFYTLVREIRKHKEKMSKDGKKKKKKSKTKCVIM
Method in brief: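 Running buffer contained 10 µM GDP and 10 mM MgCl2 to keep RAS in the GDP state, with 4% DMSO at pH 7.4. Compounds were flowed at 100 µL/min in 75 s steps of rising concentration over captured biotin-Avi RAS at 30°C. Sensorgrams were fitted 1:1 for KD.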

[3] = system: human lung cancer strain NCI-H441; test: NCI-H441 cell proliferation inhibitory activity (CellTiter-Glo, 4 days); assay type: cell-based; settings: NCI-H441 cells, 4 days, read-out: NCl-H441 IC50
Method in brief: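 Step one: dispense the test compound in serial DMSO dilutions. Step three: add the reagent and measure […].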

[4] = biological target: HRAS wild-type protein (Homo sapiens, UniProt P01112); test: Binding to HRAS by surface plasmon resonance (SPR), KD and KD ratio to KRAS; settings: ratio of KD for HRAS wild-type protein to KD for KRAS
Sequence of HRAS wild-type protein (P01112 whole entry): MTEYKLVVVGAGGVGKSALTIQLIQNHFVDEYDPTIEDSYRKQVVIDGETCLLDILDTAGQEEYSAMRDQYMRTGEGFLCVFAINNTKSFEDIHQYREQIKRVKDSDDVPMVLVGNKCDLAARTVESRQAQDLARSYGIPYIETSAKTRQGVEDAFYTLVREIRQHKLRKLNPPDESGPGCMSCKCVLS
Method in brief: as §1

Sequence of GDP-bound NRAS wild-type protein (P01111 whole entry): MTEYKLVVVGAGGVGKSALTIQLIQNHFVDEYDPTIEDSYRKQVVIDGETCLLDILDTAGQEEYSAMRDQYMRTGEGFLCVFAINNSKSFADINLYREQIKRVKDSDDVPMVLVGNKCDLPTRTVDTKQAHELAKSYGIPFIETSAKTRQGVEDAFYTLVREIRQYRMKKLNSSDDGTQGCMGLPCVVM

Structure (SMILES) | Kd [2] [µM] | IC50 [3] [µM] | NRAS /KRAS [1] | HRAS /KRAS [4]
CCO[C@@H]1C[C@H]2C(=O)NC3(CC(C)(C)C3)C(=O)N(C)[C@@H](C(CC)CC)C(=O)N(C)[C@H](C(=O)N(C)C)CC(=O)N(C)[C@@H](C(C)C)C(=O)N[C@@H]([C@@H](C)CC)C(=O)N(C)CC(=O)N(C)[C@H]3C/C=C\CCN(C3=O)[C@@H](CC3CCC(F)(F)CC3)C(=O)N(C)CC(=O)N[C@@H](CCc3ccc(C(F)(F)F)c(OC)c3)C(=O)N2C1 [PP2477] | 0.0018 | 0.127 | A (a compound having 10 or more and less than 20 is denoted as A) | A (a compound having 10 or more and less than 20 is denoted as A)
CCO[C@@H]1C[C@H]2C(=O)NC3(CC(C)(C)C3)C(=O)N(C)[C@@H](C(CC)CC)C(=O)N(C)[C@H](C(=O)N(C)C)CC(=O)N(C)[C@@H](C(C)C)C(=O)N[C@@H]([C@@H](C)CC)C(=O)N(C)CC(=O)N(C)[C@H]3C/C=C\CCN(C3=O)[C@@H](CC3CCC(F)(F)CC3)C(=O)N(C)CC(=O)N[C@@H](CCc3cc(F)c(C(F)(F)F)c(F)c3)C(=O)N2C1 [PP2481] | 0.0016 | 0.0336 | A (a compound having 10 or more and less than 20 is denoted as A) | A (a compound having 10 or more and less than 20 is denoted as A)
CCCOC[C@H]1C(=O)N[C@@H]([C@@H](C)CC)C(=O)N(C)CC(=O)N(C)[C@H]2C/C=C\CCN(C2=O)[C@@H](CC2CCC(F)(F)CC2)C(=O)N(C)CC(=O)N[C@@H](CCc2ccc(C(F)(F)F)c(OC)c2)C(=O)N2C[C@@H](C)C[C@H]2C(=O)NC2(CC(C)(C)C2)C(=O)N(C)[C@@H](C(CC)CC)C(=O)N(C)[C@H](C(=O)N(C)C)CC(=O)N1C [PP2483] | 0.0016 | 0.195 | A (a compound having 10 or more and less than 20 is denoted as A) | A (a compound having 10 or more and less than 20 is denoted as A)
CCCOC[C@H]1C(=O)N[C@@H]([C@@H](C)CC)C(=O)N(C)CC(=O)N(C)[C@H]2C/C=C\CCN(C2=O)[C@@H](CC2CCC(F)(F)CC2)C(=O)N(C)CC(=O)N[C@@H](CCc2cc(F)c(C(F)(F)F)c(F)c2)C(=O)N2C[C@@H](C)C[C@H]2C(=O)NC2(CC(C)(C)C2)C(=O)N(C)[C@@H](C(CC)CC)C(=O)N(C)[C@H](C(=O)N(C)C)CC(=O)N1C [PP2490] | 0.0017 | 0.162 | AA (a compound having 20 or more is denoted as AA) | A (a compound having 10 or more and less than 20 is denoted as A)
CCO[C@@H]1C[C@H]2C(=O)NC3(CC(C)(C)C3)C(=O)N(C)[C@@H](C(CC)CC)C(=O)N(C)[C@H](C(=O)N(C)C)CC(=O)N(C)[C@@H](C(C)C)C(=O)N[C@@H]([C@@H](C)CC)C(=O)N(C)CC(=O)N(C)[C@H]3C/C=C\CCN(C3=O)[C@@H](CC3CCC(F)(F)CC3)C(=O)N(C)CC(=O)N[C@@H](CCc3ccc(C(F)(F)F)c(Cl)c3)C(=O)N2C1 [PP2492] | 0.0024 | 0.0767 | AA (a compound having 20 or more is denoted as AA) | A (a compound having 10 or more and less than 20 is denoted as A)
CCC(CC)[C@H]1C(=O)N(C)[C@H](C(=O)N(C)C)CC(=O)N(C)[C@@H](CC2CC2)C(=O)N[C@@H]([C@@H](C)CC)C(=O)N(C)CC(=O)N(C)[C@H]2C/C=C\CCN(C2=O)[C@@H](CC2CCC(F)(F)CC2)C(=O)N(C)CC(=O)N[C@@H](CCc2ccc(C(F)(F)F)c(OC)c2)C(=O)N2C[C@@H](C)C[C@H]2C(=O)NC2(CC(C)(C)C2)C(=O)N1C [PP2494] | 0.0018 | 0.0396 | A (a compound having 10 or more and less than 20 is denoted as A) | A (a compound having 10 or more and less than 20 is denoted as A)

These reach a lower Kd [2]. Values come first.

Kd [2] [µM] | IC50 [3] [µM] | Structure (SMILES) | NRAS /KRAS [1] | HRAS /KRAS [4]
0.0015 | 0.176 | CCOC[C@H]1C(=O)N[C@@H]([C@@H](C)CC)C(=O)N(C)CC(=O)N(C)[C@H]2C/C=C\CCN(C2=O)[C@@H](CC2CCC(F)(F)CC2)C(=O)N(C)CC(=O)N[C@@H](CCc2ccc(C(F)(F)F)c(Cl)c2)C(=O)N2C[C@@H](C)C[C@H]2C(=O)NC2(CC(C)(C)C2)C(=O)N(C)[C@@H](C(CC)CC)C(=O)N(C)[C@H](C(=O)N(C)C)CC(=O)N1C [PP2475] | AA (a compound having 20 or more is denoted as AA) | A (a compound having 10 or more and less than 20 is denoted as A)
0.0014 | 0.026 | CCOC[C@H]1C(=O)N[C@@H]([C@@H](C)CC)C(=O)N(C)CC(=O)N(C)[C@H]2C/C=C\CCN(C2=O)[C@@H](CC2CCCCC2)C(=O)N(C)CC(=O)N[C@@H](CCc2cc(F)c(C(F)(F)F)c(F)c2)C(=O)N2C[C@H](OCC)C[C@H]2C(=O)NC2(CC(C)(C)C2)C(=O)N(C)[C@@H](C(CC)CC)C(=O)N(C)[C@H](C(=O)N(C)C)CC(=O)N1C [PP2479] | AA (a compound having 20 or more is denoted as AA) | A (a compound having 10 or more and less than 20 is denoted as A)
0.001 | 0.0743 | CCCOC[C@H]1C(=O)N[C@@H]([C@@H](C)CC)C(=O)N(C)CC(=O)N(C)[C@H]2C/C=C\CCN(C2=O)[C@@H](CC2CCC(F)(F)CC2)C(=O)N(C)CC(=O)N[C@@H](CCc2ccc(C(F)(F)F)c(Cl)c2)C(=O)N2C[C@H](OCC)C[C@H]2C(=O)NC2(CC(C)(C)C2)C(=O)N(C)[C@@H](C(CC)CC)C(=O)N(C)[C@H](C(=O)N(C)C)CC(=O)N1C [PP2484] | A (a compound having 10 or more and less than 20 is denoted as A) | A (a compound having 10 or more and less than 20 is denoted as A)
0.00084 | 0.0305 | CCO[C@@H]1C[C@H]2C(=O)NC3(CC(C)(C)C3)C(=O)N(C)[C@@H](C(CC)CC)C(=O)N(C)[C@H](C(=O)N(C)C)CC(=O)N(C)[C@@H](CC3CC3)C(=O)N[C@@H]([C@@H](C)CC)C(=O)N(C)CC(=O)N(C)[C@H]3C/C=C\CCN(C3=O)[C@@H](CC3CCC(F)(F)CC3)C(=O)N(C)CC(=O)N[C@@H](CCc3ccc(C(F)(F)F)c(OC)c3)C(=O)N2C1 [PP2480] | A (a compound having 10 or more and less than 20 is denoted as A) | A (a compound having 10 or more and less than 20 is denoted as A)
0.00078 | 0.0555 | CCO[C@@H]1C[C@H]2C(=O)NC3(CC(C)(C)C3)C(=O)N(C)[C@@H](C(CC)CC)C(=O)N(C)[C@H](C(=O)N(C)C)CC(=O)N(C)[C@@H](CC3CC3)C(=O)N[C@@H]([C@@H](C)CC)C(=O)N(C)CC(=O)N(C)[C@H]3C/C=C\CCN(C3=O)[C@@H](CC3CCC(F)(F)CC3)C(=O)N(C)CC(=O)N[C@@H](CCc3cc(F)c(C(F)(F)F)c(F)c3)C(=O)N2C1 [PP2485] | A (a compound having 10 or more and less than 20 is denoted as A) | A (a compound having 10 or more and less than 20 is denoted as A)
0.00058 | 0.0423 | CCCOC[C@H]1C(=O)N[C@@H]([C@@H](C)CC)C(=O)N(C)CC(=O)N(C)[C@H]2C/C=C\CCN(C2=O)[C@@H](CC2CCC(F)(F)CC2)C(=O)N(C)CC(=O)N[C@@H](CCc2cc(F)c(C(F)(F)F)c(F)c2)C(=O)N2C[C@H](OCC)C[C@H]2C(=O)NC2(CC(C)(C)C2)C(=O)N(C)[C@@H](C(CC)CC)C(=O)N(C)[C@H](C(=O)N(C)C)CC(=O)N1C [PP2472] | A (a compound having 10 or more and less than 20 is denoted as A) | A (a compound having 10 or more and less than 20 is denoted as A)
